Data: patent US12570975B2, “Composition for diagnosis or treatment of a condition associated with increased activity of EIF4E comprising an EIF4E inhibitor” (SoVarGen Co., Ltd., priority 2019, dated 2026)

Experiments:
[1] = tested on: FMCD and epilepsy animal models (mTOR-p.C1483Y, mTOR-p.L2427P); assay: 3-Chamber test (social interaction), FMCD epilepsy models; assay type: in vivo, mouse; details: ASO-eIF4E models compared to ASO-control models
Procedure: The 3-Chamber test measures social interaction and preference for social novelty. This apparatus consisted of three chambers with dimensions of 12×20×26 cm for the center chamber and dimensions of 14×20×26 cm for the opposite side chambers. Each of the opposite side chambers included a plastic cage (11 cm in diameter, 2.15 cm in height) for an object or stranger mouse in a corner. This experiment consisted of three sessions of habituation (10 min), exploring object/mouse (10 min), and exploring familiar/new mouse (10 min). In the second session, a WT stranger mouse was randomly placed in a plastic cage while the opposite plastic cage was empty. The mouse was allowed to freely explore the whole apparatus. The time spent in each chamber was measured and then used for the subsequent social interaction test. In the last session, a new WT stranger was placed in the empty plastic cage.
Experiments were performed on the FMCD and epilepsy animal models (mTOR-p.C1483Y, mTOR-p.L2427P) of Example 7-1 and the control normal animal models (mTOR-WT). […]
(§1) Briefly, ASO #77 was administered by ICV injection to the FMCD and epilepsy animal models were generated with the pCIG-mTOR mutant-IRES-EGFP of Example 1. ASO #77 was evaluated for therapeutic potential for neuropsychiatric disorder accompanying the FMCD epilepsy animal models in the substantially same manner as in Example 6.

eIF4E = eIF4E expression in cerebral cortex, cerebellum and spinal cord after ICV injection of ASO; details: mouse, in vivo
Text: Each of panels B to D of FIG. 17 and panels E and F of FIG. 18 represents “normal mice”, whereas panel A of FIG. 17 and panels G and H of FIG. 18 represents “FMCD animal models.”
(§2) For this experiment, animal models established using pCIG-mTOR p.C1483Y-IRES-EGFP and pCIG-mTOR p.L2427P-IRES-EGFP of Example 1 were used while animal models established with pCIG-mTOR (WT)-IRES-EGFP […] served as a control. The ASOs were each intracerebroventricularly injected (ICV injection) at a dose of 100-500 μg to the brains of the mice that had been identified to undergo epileptic seizure. From day 3 after ASO injection to up to day 70, 12-hour video were recorded for seizure monitoring 2-3 times a week per mouse.
After intraventricular injection of the ASO candidates to the animal models, eIF4E expression was reduced in the cerebral cortex, the cerebellum, and the spinal cord, with the consequent reduction in seizure frequency.

[2] = tested on: epilepsy models (mTOR p.C1483Y or mTOR p.L2427P); assay: Seizure monitoring after ICV injection of ASO in FMCD epilepsy models; assay type: in vivo, mouse; details: ICV injection 100-500 μg, day 3 to day 70 after injection
Procedure: as §2

[3] = over 8 weeks after ASO injection, 8-week-old mTOR mutation C57BL/6J mice
C57BL/6J mice = details: in vivo
[4] = tested on: FMCD and epilepsy animal models (mTOR-p.C1483Y, mTOR-p.L2427P); assay: Social avoidance test, FMCD epilepsy models; assay type: in vivo, mouse; details: ASO-eIF4E models compared to ASO-control models
Procedure: The arena was a black box (400×400 mm).
(§3) Experiments were performed on the FMCD and epilepsy animal models (mTOR-p.C1483Y, mTOR-p.L2427P) of Example 7-1 and the control normal animal models (mTOR-WT). The same sheIF4E as that described in Example 2 was used. Week 2 after sheIF4E injection, the handling was performed in the animals. Week 3 after sheIF4E injection, the animals were subjected to the behavioral tests.
(§4) The epilepsy animal models were subjected to the substantially same behavioral abnormality assay as in Example 6. The results are depicted in FIGS. 28 and 29.
as §1

[5] = tested on: FMCD and epilepsy animal models (mTOR-p.C1483Y, mTOR-p.L2427P); assay: Sucrose preference test, FMCD epilepsy models; assay type: in vivo, mouse; details: ASO-eIF4E models compared to ASO-control models
Procedure: Each of mice was habituated for 3-5 days in a cage with two selectable water bottles presented. Thereafter, the mice were each placed in the same cage as the habituation cage at the day of experiment. The mice were presented with two dual bottles, one containing tap water and the other containing 1% sucrose solution. Water and sucrose solution intake was measured after 24 hours and sucrose preference was calculated according to volume of sucrose intake/total volume of fluid intake×100%.
The same sheIF4E as that described in Example 2 was used. Week 2 after sheIF4E injection, the handling was performed in the animals. Week 3 after sheIF4E injection, the animals were subjected to the behavioral tests.
The epilepsy animal models were subjected to the substantially same behavioral abnormality assay as in Example 6.
as §1

[6] = tested on: GFP-labeled mutant cells of FMCD animal models; assay: Neuronal (mutant) cell size after ICV injection of ASO; assay type: in vivo, mouse; details: intractable epilepsy models, week 4-5 after ICV injection
Procedure: Week 4-5 after intracerebroventricular injection of ASO into the FMCD animal models established using pCIG-mTOR mutant-IRES-EGFP vector of Example 1, the brain was removed, fixed, sectioned, and immunostained. For neuronal cell size (FIG. 22), GFP (green)-labeled mutant cells (ASO control or ASO eIF4E) were measured for size in the obtained mouse brain tissues.

[7] = tested on: FMCD and epilepsy animal models (mTOR-p.C1483Y, mTOR-p.L2427P); assay type: in vivo, mouse
Procedure: Behaviors were recorded and analyzed using EthoVision XT (Noldus).
as §3, §4, §1

## ASO #77: eIF4E-targeting antisense oligonucleotide of SEQ ID NO: 77, 2′-MOE gapmer, all phosphorothioate linkages (antisense GATCCTTCACCAATGTTACA; all phosphorothioate, sugars by position and methylation of C not given here; 2'-MOE gapmer)
[1]
  time spent in sniffing zone (social ability): increased
eIF4E
  eIF4E expression in animal models: reduce eIF4E expression
[2]
  seizure frequency: remarkably reduced
[3]
  body weight: recovered to normal conditions
C57BL/6J mice
  time spent to interact with the stranger mouse (index of sociality and depression): not changed
[4]
  time spent to interact with the stranger mouse (social ability and depression): increased
[5]
  % sucrose preference: increased
[6]
  mutant cell size: therapeutic effects
[7]; ASO-eIF4E models compared to ASO-control models
  time spent in center (index of anxiety): increased
[7]; mouse, in vivo
  dyskinesia (behavior test): no dyskinesia
